The text below walks through data of PMC8275550, “Developmental Neurotoxicity of Fipronil and Rotenone on a Human Neuronal In Vitro Test System” (Neurotoxicity Research, 2021).

Usually viability stands for the share of living cells, or the viability signal relative to a control.

Where two headings read alike, the source gives them in different places. Bounds are passed on as bounds.

One data set deals with N2a neuroblastoma cells. Set-up: method as in Sidiropoulou et al. ([2011]). The note with it: ref Sidiropoulou et al. ([2011]); cited from earlier work.
Another data set can be described thus: in vitro. The note with it: human.
In another data set the test system is NT2 precursor cells. As to the kind of experiment: cells. The note with it: for IC50: Homo sapiens, read-out: IC50 migration (spec. EP). The class given is cell-based, human. On the procedure: (§1) As established before (Stern et al. [2014]), NT2 precursor cells were seeded in 96-mm bacteriological grade Petri dishes (Greiner, Hamburg, Germany) at a density of 4 × 10^6–5 × 10^6 cells per dish. Within 24 h, cells formed free-floating spherical aggregates of 300–800 µm diameter. On the first day, 10 ml of culture medium was added to each Petri dish. On the next days, medium with 10 μM retinoic acid (RA) was added and changed every 2–3 days by transferring the cell suspension to centrifuge tubes and centrifuge at 200 × g for 7 min. After 9 days in culture, aggregates were gently resuspended using a Pasteur pipette, and seeded at 60,000 cells per well into black 96-well plates with flat transparent bottom (Nunc). Plates were lined with poly-D-lysine and laminin (10 µg/ml each), equipped with silicone stoppers from the Oris Cell Migration Assay (AMS Biotechnology, Abingdon, UK). Cells were allowed to adhere overnight. On the next day, stoppers were pulled leaving a monolayer of cells with a circular hole of 2-mm diameter. […] After one wash in PBS, cells were fixed for 15 min in PFA, washed twice in PBS-T and stained with DAPI (0.5 µg/ml) for 5 min, followed by two washes in PBS. A black 96-hole plastic mask leaving a central circular area of 2-mm diameter for each well was clipped to the bottom of the plate. This allows viewing only those cells that had migrated into the free areas left by the silicone stoppers during seeding (Fig. 1b). Migration was quantified by taking two photographs of each well and measuring the distance of the migration front from the black margin of the mask in using ImageJ. Occasional asymmetries caused by slight inaccuracies of silicone stopper placement were compensated by averaging measurements in four quadrants per well. […] Average null-migration values were subtracted from migrated distance before evaluation.

Data set [1] relates to differentiating NT2 cells. Briefly: cells. The class given is cell-based, human. The note with it: for IC50: NT2, 120 h, read-out: IC50 neuronal differentiation (ß-tub III, spec. EP). On the procedure:
(§2) As established in our previous study (Stern et al. [2014]), cells were seeded into 96-well plates (Corning Costar, Kaiserslautern, Germany) at 80,000 cells per well and incubated in DMEM/F12 with 10 µM retinoic acid (RA) for 4 days (one media change). Cells were incubated for further 5 days (one media change) in media containing 10 µM RA and up to seven concentrations of a test compound. On day 9 (5-day exposition), cell viability was measured using a resazurin reduction assay (Trinova Biochem, Giessen, Germany). Subsequently, cells were fixed for 15 min in PFA and immunolabeled for ß-tubulin type III as above (Fig. 1a). For control purposes, photographs were taken at × 20 magnification as above. Neuronal differentiation was determined by measuring red fluorescence (excitation 568 nm, emission 603 nm) in a multiwell-plate reader (Infinite 200, TECAN, Germany). As a confirmation of the viability data, cell number was also quantified by measuring DAPI fluorescence (excitation 350 nm, emission 488 nm).

The test system of data set [2] is differentiating NT2 cells. As to the kind of experiment: Resazurin reduction viability assay in the neuronal differentiation assay. The class given is cell-based, human. The note with it: differentiation assay. The protocol: as §2
Background: Alamar Blue is a resazurin reagent that responds to reducing activity.

Test in data set [3]: as above
The note with it: human. In kind it is cell-based, human. The protocol:
as §2

A further data set relates to SH-SY5Ycells. The arrangement: method as in Ruangjaroon et al. [2017]. The note with it: incompletely differentiated cells; ref Ruangjaroon et al. [2017]; cited from earlier work.
The subject of the next data set is NT2 neurons. Briefly: cells. The class given is cell-based, human. The text has this: Two photographs/well at × 20 magnification were taken.
Data set [4] in a line: Resazurin reduction viability assay in the cell migration assay. The class given is cell-based. The note with it: human. The protocol: as §1
The next data set concerns insect GABAa receptors. Set-up: method as in Hainzl et al. [1996]. The note with it: ref Hainzl et al. [1996]; cited from earlier work.
The next data set relates to zebrafish embryo. The note with it: cited from earlier work.
Another data set concerns neurospheres. The arrangement: method as in Ishido and Suzuki ([2010]). The note with it: general cytotoxicity not tested; ref Ishido and Suzuki ([2010]); read-out: IC50 cell migration out of neurospheres; cited from earlier work.
For data set [5] the following is noted: human.
Experimental: (§3) Dispersed cells were seeded into two identical poly-D-lysine (10 µg/ml) coated 96-well plates (Corning Costar, Kaiserslautern, Germany) at a density of 10,000 cells per well. Cultures were exposed to up to seven different concentrations of a test compound in DMEM/F12 (six technical replicates per concentration) for 24 h. One plate was immediately fixed in 4% paraformaldehyde in PBS (PFA) for 15 min. After 24 h, while a resazurin reduction assay (2 h) was performed on the other plate. […] Fixed cells were washed in PBS containing 0.1% Triton X100 (PBS-T) and immunolabeled for ß-tubulin type III (monoclonal anti ßtubIII, 1:20,000) using a red fluorescent secondary antibody (goat anti mouse-alexaFluor568, Invitrogen, Germany, 1:250) and DAPI (0.1 µg/ml) as nuclear counterstain. Cells were examined on a Zeiss Axiovert 200 inverted microscope equipped with a CoolSnap camera (Photometrics, Tucson, AZ, USA) and MetaMorph software (Molecular Devices, Sunnyvale, CA, USA), or a Zeiss Axiocam50 mono and Zeiss ZENlite 2.6 blue edition software. Two photographs/well at × 20 magnification were taken. Lengths of all neurites in the field of view were measured in ImageJ (http://imagej.nih.gov/ij) using the ‚segmented line ‘ tool (Fig. 1c) and divided by the number of ß-tubulin III-positive cells.
Data set [6] has as its system NT2 cells treated for 2 weeks with retinoic acid (2wkRA). The note with it: […].
Experimental: as §3
Setting [7] is: yes = at least one concentration of rescuing compound with specific endpoint significantly less affected.
[8] abbreviates: migration assay, 44 h exposure, > = highest tested concentration, read-out: IC50 general cytotoxicity (resazurin), unspec. EP.
[9] abbreviates: yes = at least one concentration of rescuing compound with specific endpoint significantly less affected than by test compound alone.

Experimental for in vitro: as §3

For the compound `N#Cc1nn(-c2c(Cl)cc(C(F)(F)F)cc2Cl)c(N)c1[S+]([O-])C(F)(F)F` (stereo not drawn) [Fipronil, 5-Amino-1-[2,6-dichloro-4-(trifluoromethyl)phenyl]-4-(trifluoromethylsulfinyl)pyrazole-3-carbonitrile], in the data set with N2a neuroblastoma cells, the “Concentration reducing outgrowth of axon-like processes” value is 1 µM. Moreover, the IC50 was over 62.5 µM in the data set “in vitro”; 25.1 µM with NT2 precursor cells (44 h exposure); 14.8 µM in [1] (Homo sapiens, 5 days exposure); 23.4 µM in [2] (5 days exposure, read-out: IC50 general cytotoxicity (resazurin), unspec. EP); 23.2 µM in data set [3] (differentiation assay, 5 days exposure, read-out: IC50 general cytotoxicity (resazurin), unspec. EP); over 62.5 µM with NT2 neurons (Homo sapiens, 24 h exposure, total neurite length/neuron, normalized to solvent control, read-out: IC50 neurite outgrowth (spec. EP)). For the same compound, the IC50 in data set [4] (setting [8]) was over 62.5 µM. Further, in the data set with NT2 precursor cells (44 h exposure), the “Concentrations with significant differences between viability and migration” value is listed as at least 15.63 µM. Also, the “Rescue by NAC, migration” value in the data set on NT2 precursor cells (setting [7]) was “yes”. The activity at 15.6 µM in [1] (Homo sapiens, NT2, 15.6 µM fipronil, read-out: ß-tubulin III-immunofluorescence (% of control)) was under 50%. The “Rescue by NAC, neuronal differentiation” value in data set [1] (setting [7]) is on record as “yes”. The viability in data set [3] (15.6 µM fipronil, read-out: General viability (% of control)) was over 90%. For the same compound, in the data set on SH-SY5Ycells, the “Concentration reducing process outgrowth of vimentin-positive protrusions, but not viability” value is on record as 25 µM. Also, in the data set on insect GABAa receptors, the “Higher affinity to insect GABAa receptors than to vertebrate GABA receptors” value is recorded as “more than 100 fold”. In addition, the “Concentration inhibiting zebrafish neurogenesis” value in the data set with zebrafish embryo (via reduction of gene expression for neuron/glia differentiation, ref Park et al. [2020]) is reported as ~ 33 µM. Further, the “Concentration disturbing development of motor circuits” value with zebrafish embryo (zebrafish embryo, ref Stehr et al. [2006]) is recorded as 0.7 µM.

As to `C=C(C)[C@H]1Cc2c(ccc3c2O[C@@H]2COc4cc(OC)c(OC)cc4[C@@H]2C3=O)O1` [Rotenone, (1S,6R,13S)-16,17-Dimethoxy-6-prop-1-en-2-yl-2,7,20-trioxapentacyclo[11.8.0.0^3,11.0^4,8.0^14,19]henicosa-3(11),4(8),9,14,16,18-hexaen-12-one], the IC50 in the data set on neurospheres was about 0.2 µM; in the data set with NT2 precursor cells (44 h) it was 0.051 µM; in [1] (Homo sapiens), 0.00518 µM; in the data set with NT2 neurons (Homo sapiens, Neuron, 24 h, read-out: IC50 neurite outgrowth (spec. EP)), 0.55 µM; in the data set on NT2 neurons (Homo sapiens, Neuron, 24 h, read-out: IC50 spec. EP (neurite outgrowth)) it was 0.55 µM. For the same compound, the “Concentration at which a significant reduction of migration could already be observed” value in the data set on NT2 precursor cells (44 h exposure) was 4.12 nM. Moreover, the “Rescue by NAC, migration” value in the data set with NT2 precursor cells (setting [7]) was “no”. In the data set with NT2 precursor cells (setting [7]), the “Rescue by Y-27632, migration” value is given as “Yes”. Further, the “ß-tubulin III-expression (% of control)” value in data set [1] (1.2 nM rotenone, highest non-cytotoxic concentration) is on record as “below 75%”. Moreover, the “Rescue by NAC, neuronal differentiation” value in [1] (setting [7]) is “no”. The “Rescue by Y-27632, neuronal differentiation” value in data set [1] (setting [7]) is “No”. Moreover, the “Highest non-cytotoxic concentration (viability > 90%)” value in data set [2] is reported as 1.2 nM; in [6], 123 nM. Further, the IC50 at 5 days in data set [3] (differentiation assay, 5 days exposure, > = highest tested concentration, read-out: IC50 general cytotoxicity (resazurin), unspec. EP) was over 0.1 µM. Besides, in data set [3] (highest tested rotenone concentration (100 nM), read-out: General viability (% of control)), the viability at 5 days, 0.1 µM amounted to 72%. The IC50 at 24 h in [5] is over 10 µM. Moreover, the viability at 24 h, 10 µM in [5] (General cell viability (% of control), highest tested concentration, 10 µM rotenone) is about 80%. Further, the activity at 0.123 µM in the data set with NT2 neurons (Homo sapiens, Neuron, read-out: Neurite outgrowth (% of control)) is under 75%. The “Rescue by NAC, neurite outgrowth” value in the data set with NT2 neurons (setting [9]) is listed as “no”. Besides, the “Rescue by Y-27632, neurite outgrowth” value with NT2 neurons (setting [9]) was “Yes”. Also, the viability at 44 h, 0.333 µM in data set [4] (highest tested rotenone concentration (333 nM), read-out: General viability (% of control)) is over 70%. The IC50 at 44 h in [4] (setting [8]) is over 0.333 µM.
